Experiment [1] deals with T1, IRE1α (Homo sapiens, UniProt O75460).
T1 construct: purchased Signal Chem E31-11G
The experiment in a line: Biochemical assay: inhibition of RNase activity of IRE1α. Particulars: enzyme 0.325 nM, substrate 100 nM, 20 minutes. The procedure, abridged: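 RNase cleavage monitored as dequenching of a 5′ Alexa Fluor 647/3′ quencher RNA oligo (100 nM), stopped with 5 M urea after 20 min at room temperature. Enzyme 0.325 nM, preceded by 30 min compound pre-incubation; buffer Tris/MgCl2/KCl/DTT/Tween, 4% DMSO final. IC50 from curve fit of % inhibition.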

In experiment [2] the test system is ARPE-19 cells stably expressing XBP1 (a.a. 1-376). The experiment in a line: Cellular XBP1 splicing assay (NanoLuc luciferase, thapsigargin). It is filed as cell-based. Particulars: Homo sapiens, ARPE-19, 4 h, thapsigargin 150 nM. The procedure, abridged: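 ARPE-19 cells carrying an XBP1(1-376)-NanoLuc splicing reporter were pretreated with compound (10-point ½-log series, 0.117% DMSO) for 30 min, then stressed with 150 nM thapsigargin for 4 h at 37° C. Luminescence was read, and IC50 values came from sigmoidal fits of percent inhibition of control.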

Experiment [3] concerns the target T1, IRE1α. The experiment in a line: Biochemical assay to detect inhibition of kinase activity of IRE1α (ADP-Glo). The procedure:
Biochemical Assays to Detect Inhibition of Kinase Activity of IRE1α
The kinase reactions were performed in 384 well white ProxiPlate-384 Plus plates (PERKIN Elmer 6008280) using 25 mM MOPS assay buffer with 1 mM dithiothreitol, 25 mM MgCl2, 12.5 mM β-glycerophosphate, 5 mM EGTA, and 50 μg/mL BSA. Test compounds were prepared on the day of assay and dispensed using D300 digital dispenser as a 10-point ½ log dilution series in duplicate, normalized to a final DMSO concentration of 3%. Test compounds were pre-incubated for 30 min at room temperature with 10 nM IRE1α kinase (E31-11G from Signal Chem) in 2.5 μL of assay buffer and the reaction started by addition of 2.5 μL of ATP in assay buffer, to give a final ATP concentration of 100 μM and 5 nM IRE1α kinase. After 4 hours incubation at room temperature the reactions were stopped and the kinase activity determined using the ADP-Glo™ reagent from Promega, according to the manufacturer's instructions. Luminescence was measured on a luminometer (EnVision, PerkinElmer) and IC50 values calculated by fitting a sigmoidal curve to percent inhibition of control versus Log10 of compound concentration.
A general note: ADP-Glo turns the ADP formed in a reaction into a luminescent signal.

T1 sequence (O75460 468-977 limits assumed): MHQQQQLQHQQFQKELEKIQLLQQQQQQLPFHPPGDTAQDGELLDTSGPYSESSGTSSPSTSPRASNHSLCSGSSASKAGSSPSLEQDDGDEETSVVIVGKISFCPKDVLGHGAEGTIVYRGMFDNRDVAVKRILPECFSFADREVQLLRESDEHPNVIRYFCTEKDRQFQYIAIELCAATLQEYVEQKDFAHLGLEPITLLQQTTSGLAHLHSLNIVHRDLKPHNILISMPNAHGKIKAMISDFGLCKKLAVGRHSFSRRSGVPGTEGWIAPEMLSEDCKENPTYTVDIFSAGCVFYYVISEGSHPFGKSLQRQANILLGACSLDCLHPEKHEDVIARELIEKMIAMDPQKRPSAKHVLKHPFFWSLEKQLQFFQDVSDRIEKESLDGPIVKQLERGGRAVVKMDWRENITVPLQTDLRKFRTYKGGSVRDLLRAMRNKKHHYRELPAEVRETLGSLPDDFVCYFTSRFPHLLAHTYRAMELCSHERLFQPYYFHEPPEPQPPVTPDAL

For orientation: IC50 means the concentration that gives 50% inhibition. As to `CC(C)n1nc(-c2cc(F)c(NS(=O)(=O)Cc3ccccc3Cl)cc2F)c2c(N)ncc([C@H]3CC[C@H](NC4COC4)CC3)c21` [Compound A47, N-(4-(4-amino-1-isopropyl-7-((1r,4r)-4-(oxetan-3-ylamino)cyclohexyl)-1H-pyrazolo[4,3-c]pyridin-3-yl)-2,5-difluorophenyl)-1-(2-chlorophenyl)methanesulfonamide], the figures for the IC50 (at IRE1α [1]; in experiment [2]; on IRE1α [3]) were 1.3 nM, 5.6 nM and 2 nM, respectively.
As to `CCn1nc(-c2cc(F)c(NS(=O)(=O)Cc3ccccc3F)cc2F)c2c(N)ncc([C@H]3CC[C@H](NC4COC4)CC3)c21` [Compound A43, N-(4-(4-amino-1-ethyl-7-((1r,4r)-4-(oxetan-3-ylamino)cyclohexyl)-1H-pyrazolo[4,3-c]pyridin-3-yl)-2,5-difluorophenyl)-1-(2-fluorophenyl)methanesulfonamide], the IC50 on IRE1α [1] was found to be 5.4 nM; in experiment [2], 52 nM; at IRE1α [3] it was 3.2 nM.
For the compound `CC(C)n1nc(-c2ccc(NS(=O)(=O)c3ccccc3Cl)c(F)c2)c2c(N)ncc([C@H]3CC[C@H](NC4COC4)CC3)c21` [Compound A34, N-(4-(4-amino-1-isopropyl-7-((1r,4r)-4-(oxetan-3-ylamino)cyclohexyl)-1H-pyrazolo[4,3-c]pyridin-3-yl)-2-fluorophenyl)-2-chlorobenzenesulfonamide], the half-inhibitory concentration (IC50) amounted to 3.5 nM on IRE1α [1], 4.3 nM in experiment [2] and 3 nM against IRE1α [3].
Taken in the same sequence, the figures for `CC(C)n1nc(-c2ccc(NS(=O)(=O)Cc3ccccc3F)c(F)c2)c2c(N)ncc([C@H]3CC[C@H](NC4COC4)CC3)c21` [Compound A57, N-(4-(4-amino-1-isopropyl-7-((1r,4r)-4-(oxetan-3-ylamino)cyclohexyl)-1H-pyrazolo[4,3-c]pyridin-3-yl)-2-fluorophenyl)-1-(2-fluorophenyl)methanesulfonamide] were 0.4 nM, 2.5 nM and 0.9 nM.
With `CC(C)n1nc(-c2cc(F)c(NS(=O)(=O)c3ccccc3F)cc2F)c2c(N)ncc([C@H]3CC[C@H](NC4COC4)CC3)c21` [Compound A50, N-(4-(4-amino-1-isopropyl-7-((1r,4r)-4-(oxetan-3-ylamino)cyclohexyl)-1H-pyrazolo[4,3-c]pyridin-3-yl)-2,5-difluorophenyl)-2-fluorobenzenesulfonamide], the IC50 was 6.9 nM against IRE1α [1], 17 nM in experiment [2] and 3.3 nM against IRE1α [3].
Consider `CC(C)n1nc(-c2cc(F)c(NS(=O)(=O)c3ccccc3Cl)cc2F)c2c(N)ncc([C@H]3CC[C@H](NC4COC4)CC3)c21` [Compound A49, N-(4-(4-amino-1-isopropyl-7-((1r,4r)-4-(oxetan-3-ylamino)cyclohexyl)-1H-pyrazolo[4,3-c]pyridin-3-yl)-2,5-difluorophenyl)-2-chlorobenzenesulfonamide], for which the concentration for half-maximal inhibition (IC50) came out at 6 nM against IRE1α [1], 4.3 nM in experiment [2] and 2.1 nM against IRE1α [3].
With `CCn1nc(-c2ccc(NS(=O)(=O)c3ccccc3Cl)c(F)c2)c2c(N)ncc([C@H]3CC[C@H](NC4COC4)CC3)c21` [Compound A52, N-(4-(4-amino-1-ethyl-7-((1r,4r)-4-(oxetan-3-ylamino)cyclohexyl)-1H-pyrazolo[4,3-c]pyridin-3-yl)-2-fluorophenyl)-2-chlorobenzenesulfonamide], the figures for the IC50 (at IRE1α [1]; in experiment [2]; against IRE1α [3]) were 6.1 nM, 15 nM and 4.6 nM, respectively.

The record behind these values is patent US20220153734A1, “Pyrazolopyridine Compounds For IRE1 Inhibition” (Optikira, LLC, priority 2019, published 2022).
